Where two headings read alike, the source gives them in different places.
What was measured:
FKBP [1] = molecular target: T1, FKBP (Homo sapiens, UniProt P62942); assay: binding affinity by fluorescence titrations; set-up: made in house
[2] = molecular target: T2, catalytic domain of stromelysin (Homo sapiens, UniProt P08254); assay: two-dimensional 15N/1H NMR correlation titration, dissociation constant; assay type: binding
T2 construct: expression construct coding for amino acid residues 81-256 plus an initiating methionine; initiating methionine (N); made in house; host or cells: E. coli BL21(DE3)/pLysS, pET3d
Experimental: Binding or dissociation constants are measured by following the ^15N/^1H chemical shifts of the protein as a function of ligand concentration. A known concentration ([P]o) of the target molecule is mixed with a known concentration ([L]0) of a previously identified ligand and the two-dimensional ^15N/^1H correlation spectrum was acquired. From this spectrum, observed chemical shift values (δobs) are obtained. The process is repeated for varying concentrations of the ligand to the point of saturation of the target molecule, when possible, in which case the limiting chemical shift value for saturation (δsat) is measured.
In those situations where saturation of the target molecule is achieved, the dissociation constant for the binding of a particular ligand to the target molecule is calculated using the formula: KD = (([P]0−x)([L]0−x))/(x) [formula] where [P]0 is the total molar concentration of target molecule; [L]0 is the total molar concentration of ligand; and x is the molar concentration of the bound species. The value of x is determined from the equation: x = (δobs −δfree)/(Δ) [formula] where δfree is the chemical shift of the free species; δobs is the observed chemical shift; and Δ is the difference between the limiting chemical shift value for saturation (δsat) and the chemical shift value of the target molecule free of ligand (δfree).
The dissociation constant is then determined by varying its value until a best fitto the observed data is obtained using standard curve-fitting statistical methods. In the case where δsat is not directly known, both KD and δsat are varied and subjected to the same curve-fitting procedure.
The catalytic domain of stromelysin was prepared in accordance with the procedures of Example 1. The protein solutions used in the screening assay contained the uniformly ^15N-labeled catalytic domain of stromelysin (0.3 mM), acetohydroxamic acid (500 mM), CaCl2 (20 mM), and sodium azide (0.5%) in a H2O/D2O (9/1) TRIS buffered solution (50 mM, pH=7.0).
Two-dimensional ^15N/^1H NMR spectra were generated at 29°C on a Bruker AMX500 NMR spectrometer equipped with a triple resonance probe and Bruker sample changer. The ^15N/^1H HSQC spectra were acquired as 80 x 1024 complex points using sweep widths of 2000 Hz (^15N, t^1) and 8333 Hz (^1H, t2). A delay of 1 second between scans and 8 scans perfree induction decay(fid) were employed in the data collection. All NMR spectra were processed and analyzed on Silicon Graphics computers using in-house-written software.
A first two-dimensional ^15N/^1 H NMR correlation spectrum was acquired for the ^15N-labeled stromelysin target molecule as described above. The stromelysin target was then exposed to a database of test compounds. Stock solutions of the compounds were made at 100 mM and 1 M. In addition, a combination library was prepared that contained 8-10 compounds per sample at a concentration of 100 mM for each compound.
The NMR samples were prepared by adding 4 µl of the DMSO stock solution of the compound mixtures that contained each compound at a concentration of 100 mM to 0.4 ml H2O/D2O (9/1) buffered solution of the uniformly ^15N-labeled protein. The final concentration of each of the compounds in the NMR sample was about 1 mM.
Various biaryl compounds of structure I were tested for binding to stromelysin at differing concentrations. The ^15N/^1H spectra generated at each concentration were evaluated to quantify differences in the spectra as a function of compound concentration. A binding or dissociation constant (KD)was calculated, using standard procedures well known in the art, from those differences. The values for R1-R3 and A1-A3 in Table 1 refer to the corresponding positions in the structure I, above.
All NMR measurements were performed in the presence of 500 mM acetohydroxamic acid, except for the titration of acetohydroxamic acid itself. Dissociation constants were obtained from the dependence of the observed chemical shift changes upon added ligand. […]

[3] = molecular target: T2, catalytic domain of stromelysin; assay: enzymatic assay, cleavage of a fluorogenic substrate; assay type: biochemical
Experimental: In a first study, binding constants were determined, both by the NMR method of the present invention, and by a prior art enzymatic assay. The target molecule was the catalytic domain of stromelysin prepared in accordance with the procedures of Example 1. […] The KD values so obtained were compared to an inhibition constant KI as determined in an enzymatic assay.
The enzymatic assay measured the rate of cleavage of a fluorogenic substrate by following the fluorescence increase upon peptide cleavage which causes a separation between the fluorophore and quencher. Enzymatic activity was measured using a matrix of different concentrations of acetohydroxamic acid and biaryl compounds. The assay is a modification of the method described by H. Weingarten, et al. in Anal. Biochem., 147: 437-440 (1985) employing the fluorogenic substrate properties described by E. Matayoshi, et al. in Science: 247: 954-958 (1990).
Eight acetohydroxamic acid concentrations were used ranging from 0.0 to 1.0 M, and six compound concentrations were used, resulting in a total of 48 points. Individual compound concentration varied due to solubility and potency.
All NMR measurements were performed in the presence of 500 mM acetohydroxamic acid, except for the titration of acetohydroxamic acid itself. Dissociation constants were obtained from the dependence of the observed chemical shift changes upon added ligand. Inhibition constants were then obtained from the inhibition data using standard procedures.

[4] = molecular target: T3, DNA-binding domain of the E2 protein (Human papillomavirus 31, UniProt P17383); assay: two-dimensional 15N/1H NMR correlation titration, binding constants for two binding sites
T3 construct: made in house; host or cells: bacteria, T7 expression system
Experimental: Compounds from the database were screened in a similar manner for binding to the DNA-binding domain of the E2 protein. Those compounds had the structure II below, where R1-R4 and A are defined in Table 2. [drawing 5]
NMR experiments were performed at 29°C on a Bruker AMX500 NMR spectrometer equipped with a triple resonance probe and Bruker sample changer. The ^15N-/^1H HSQC spectra were acquired as 80 x 1024 complex points using sweep widths of 2000 Hz (^15N,t1) and 8333 Hz (^1H, t2). A delay of 1 second between scans and 4 scans per free induction decay were employed in the data collection. All NMR spectra were processed and analyzed on Silicon Graphics computers.
By monitoring the chemical shift changes as a function of ligand concentration, binding constants for the two binding sites were also measured. Table 2 […]

Stromelysin = molecular target: T4, Stromelysin (Homo sapiens, UniProt P08254); assay: stromelysin inhibition by linked hydroxamate-biaryl compounds; assay type: biochemical; conditions: for IC50: Table 4, kind of constant not given
T4 construct: expression construct coding for amino acid residues 81-256 plus an initiating methionine; initiating methionine (N); made in house; host or cells: E. coli BL21(DE3)/pLysS, pET3d

FKBP [5] = molecular target: T1, FKBP; assay: two-dimensional 15N/1H NMR correlation titration, dissociation constant; assay type: binding; set-up: made in house; host or cells: recombinant
Experimental: The second step in the design process was the identification of a second ligand that bound to the target FKBP at a site different from the binding site of compound 29. This was accomplished by screening compounds for their ability to bind to FKBP in the presence of saturating amounts of the ascomycin fragment analog (compound 29). Details of procedures for this second identification step are as set forth in example 2.
In the second round of screening, binding was assayed both in the presence and in the absence of saturating amount of compound 29 (1 mM).
Various benzanilide compounds were tested for binding to FKBP at multiple ligand concentrations. The ^15N/^1H correlation spectra generated at each concentration were evaluated to quantify differences in the spectra as a function of compound concentration. A binding or dissociation constant (Kd) was calculated, using standard procedures well known in the art, from those differences. The values for R1-R4 in Table 5 refer to the corresponding positions in the structure III, above.

[6] = Table 1, biaryl compounds of structure I, differing concentrations, read-out: KD
[7] = Table 3, in the presence of 500 mM acetohydroxamic acid, read-out: NMR KD
[8] = fluorogenic substrate, matrix of acetohydroxamic acid and compound concentrations, read-out: Assay KI
[9] = amides of the DNA-binding site, read-out: DNA KD
[10] = amides of the β-barrel site, read-out: β-barrel KD

T3 sequence (P17383 292-372): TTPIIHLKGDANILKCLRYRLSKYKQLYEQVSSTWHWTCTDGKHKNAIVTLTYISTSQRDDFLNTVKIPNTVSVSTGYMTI
T1 sequence (P62942 whole entry, the tested form may be a part): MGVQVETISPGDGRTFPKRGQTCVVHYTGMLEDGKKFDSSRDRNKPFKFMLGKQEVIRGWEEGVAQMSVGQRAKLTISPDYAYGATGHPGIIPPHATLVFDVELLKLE
T4 sequence (P08254 98-273): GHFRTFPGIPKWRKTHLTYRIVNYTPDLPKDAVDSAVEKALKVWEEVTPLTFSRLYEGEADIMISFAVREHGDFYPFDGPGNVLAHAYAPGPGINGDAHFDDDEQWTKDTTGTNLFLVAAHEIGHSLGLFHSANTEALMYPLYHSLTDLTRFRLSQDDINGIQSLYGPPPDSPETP
T2 sequence (P08254 98-273): as above

Compound: COc1cc(C(=O)C(=O)N2CCCC[C@H]2C(=O)OCCCOc2ccc(C(=O)Nc3ccc(O)cc3)cc2)cc(OC)c1OC
- Kd (FKBP [1]): 0.019 µM
- increase in potency over the ascomycin-fragment analog (compound 29) alone (FKBP [1]): 100 fold

Compound: Oc1cccc(-c2ccccc2)c1 [Compound 1]
- Kd [2]: 1100 µM

Compound: OCc1ccc(-c2ccccc2)cc1 [Compound 2]
- Kd [2, 6]: 3200 µM

Compound: Oc1ccc(-c2ccc(Br)cc2)cc1 [Compound 3]
- Kd [2, 6]: 1300 µM

Compound: c1ccc(-c2ccncn2)cc1 [Compound 4]
- Kd [2, 6]: 1600 µM
- Kd [2, 7]: 1600 µM
- Ki [3, 8]: 7400 µM

Compound: O=Cc1ccc(-c2ccccc2)cc1 [Compound 5]
- Kd [2]: 1700 µM

Compound: COc1ccc(-c2ccccc2)cc1N [Compound 6]
- Kd [2, 6]: 400 µM

Compound: c1ccc(-c2ccncc2)cc1 [Compound 7]
- Kd ([2]; read-out: KD): 200 µM
- Kd ([2]; read-out: NMR KD): 170 µM
- Ki ([3]; read-out: Assay KI): 320 µM

Compound: CC(=O)Oc1ccc(-c2ccccc2)cc1 [Compound 8]
- Kd [2, 6]: 300 µM

Compound: Oc1ccc(-c2ccc(O)cc2)cc1 [Compound 9]
- Kd [2, 6]: 10 µM
- Kd [2, 7]: 160 µM
- Ki [3, 8]: 700 µM

Compound: c1cc(-c2ccncc2)ccn1 [Compound 10]
- Kd [2]: 400 µM
- Kd ([2]; read-out: NMR KD, Table 3, in the presence of 500 mM acetohydroxamic acid): 400 µM
- Ki [3]: 1800 µM

Compound: Oc1ccc(-c2ccccc2)cc1 [Compound 11]
- Kd [2]: 300 µM

Compound: N#Cc1ccc(-c2ccc(O)cc2)cc1 [Compound 12]
- Kd [2, 6]: 10 µM
- Kd [2, 7]: 20 µM
- Ki [3, 8]: 110 µM

Compound: O=C(c1ccccc1)c1cccc(O)c1 [Compound 13]
- Kd [4, 9]: > 50000 µM
- Kd [4, 10]: 600 µM

Compound: OCc1cccc(Oc2ccccc2)c1 [Compound 14]
- Kd [4, 9]: > 50000 µM
- Kd [4, 10]: 2000 µM

Compound: O=C(O)c1ccc(-c2ccccc2)cc1 [Compound 15]
- Kd [4, 9]: 2000 µM
- Kd [4, 10]: > 50000 µM

Compound: O=C(O)c1ccc(-c2cc(Cl)cc(Cl)c2)cc1 [Compound 16]
- Kd [4, 9]: 100 µM
- Kd [4, 10]: > 50000 µM

Compound: O=C(O)Cc1ccc(-c2ccccc2)cc1 [Compound 17]
- Kd [4, 9]: 4200 µM
- Kd [4, 10]: 4900 µM

Compound: O=C(O)C=Cc1ccc(-c2ccccc2)cc1 [Compound 18]
- Kd [4, 9]: 1200 µM
- Kd [4, 10]: 6200 µM

Compound: CC(CCc1ccc(Oc2ccccc2)cc1)CC(=O)O (stereo not drawn) [Compound 19]
- Kd [4, 9]: 500 µM
- Kd [4, 10]: 200 µM

Compound: O=C(O)CCC(=O)c1ccc(Oc2ccccc2)cc1 [Compound 20]
- Kd [4, 9]: 2700 µM
- Kd [4, 10]: 4800 µM

Compound: O=C(CCOc1ccc(-c2ccccc2)cc1)NO [Compound 21]
- IC50 (Stromelysin): 0.31 µM

Compound: O=C(CCCOc1ccc(-c2ccccc2)cc1)NO [Compound 22]
- IC50 (Stromelysin): 110 µM

Compound: O=C(CCCCOc1ccc(-c2ccccc2)cc1)NO [Compound 23]
- inhibition at 100 µM (Stromelysin): 38%

Compound: O=C(CCCCCOc1ccc(-c2ccccc2)cc1)NO [Compound 24]
- inhibition at 100 µM (Stromelysin): 43%

Compound: N#Cc1ccc(-c2ccc(OCCC(=O)NO)cc2)cc1 [Compound 25]
- IC50 (Stromelysin): 0.025 µM

Compound: N#Cc1ccc(-c2ccc(OCCCC(=O)NO)cc2)cc1 [Compound 26]
- IC50 (Stromelysin): 3.4 µM

Compound: N#Cc1ccc(-c2ccc(OCCCCC(=O)NO)cc2)cc1 [Compound 27]
- IC50 (Stromelysin): 3.5 µM

Compound: N#Cc1ccc(-c2ccc(OCCCCCC(=O)NO)cc2)cc1 [Compound 28]
- IC50 (Stromelysin): 1.7 µM

Compound: COC(=O)[C@@H]1CCCCN1C(=O)C(=O)c1cc(OC)c(OC)c(OC)c1 [Compound 29]
- Kd (FKBP [1]): 2 µM
- occupancy of the binding site (FKBP [5]; ligand concentrations of 1 mM): > 98%

Compound: O=C(Nc1ccc(O)cc1)c1ccccc1O [Compound 30]
- Kd (FKBP [5]): 800 µM

Compound: O=C(Nc1ccccc1)c1ccc(O)cc1 [Compound 32]
- Kd (FKBP [5]): 500 µM

Compound: O=C(Nc1ccc(O)cc1)c1ccc(O)cc1 [Compound 33]
- Kd (FKBP [5]): 100 µM

Compound: O=C(Nc1ccc(O)cc1)c1ccccc1 [Compound 34]
- Kd (FKBP [5]): 600 µM

Compound: Cc1cc(C(=O)Nc2ccc(O)cc2)ccc1O [Compound 35]
- Kd (FKBP [5]): 500 µM

Compound: O=C(Nc1ccccc1)c1ccccc1 [Compound 36]
- Kd (FKBP [5]): > 5000 µM

Compound: O=C(Nc1ccccc1)c1ccccc1O [Compound 37]
- Kd (FKBP [5]): > 5000 µM
